Laboratory results from patent US12077503B2, “Substituted cyclic amides and their use as herbicides” (FMC CORPORATION, priority 2015, dated 2024).

Legend:
Format in all cases: in vivo
[1] = tested on: velvetleaf (Abutilon theophrasti); assay: Test G Post-Emergence Protocol; settings: Abutilon theophrasti, post-emergence, 312 h; for pest or weed control at 15.625 g/ha: 15.625 g ai/ha, evaluated after 13 days (100=total damage to plant; 0=no damage to plant), read-out: Velvetleaf damage rating; for pest or weed control at 62.5 g/ha: 62.5 g ai/ha, read-out: Velvetleaf damage rating (100=total damage to plant; 0=no damage to plant); for pest or weed control at 62.5 g/ha / pest or weed control at 250 g/ha: evaluated after 13 days; for pest or weed control at 250 g/ha: 250 g ai/ha, read-out: damage to plant, Velvetleaf (100=total damage to plant; 0=no damage to plant)
Outline: (§1)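 Pot-grown seedlings, 8 days old, raised in a glasshouse at 24/16 °C day/night with 14 h light and 65% humidity, were sprayed post-emergence with test compound in acetone/water (50:50) plus 0.5% Tween 20 at 15.625, 62.5 or 250 g/ha. Damage was scored visually 13 days later on a 0–100 scale (100 = total damage).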

[2] = tested on: ivy-leaved morning glory (Ipomoea hederacea); assay: Test G Post-Emergence Protocol; settings: Ipomoea, post-emergence, 312 h; for pest or weed control at 15.625 g/ha: 15.625 g ai/ha, evaluated after 13 days (100=total damage to plant; 0=no damage to plant), read-out: Morningglory, Ivy-leaved damage rating; for pest or weed control at 62.5 g/ha: 62.5 g ai/ha, read-out: Morningglory, Ivy-leaved damage rating (100=total damage to plant; 0=no damage to plant); for pest or weed control at 62.5 g/ha / pest or weed control at 250 g/ha: evaluated after 13 days; for pest or weed control at 250 g/ha: 250 g ai/ha, read-out: damage to plant, Morningglory, Ivy-leaved (100=total damage to plant; 0=no damage to plant)
Outline: as §1

[3] = tested on: corn (Zea mays); assay: Test G Post-Emergence Protocol; settings: Zea mays, post-emergence, 312 h; for plant injury at 15.625 g/ha: 15.625 g ai/ha, evaluated after 13 days (100=total damage to plant; 0=no damage to plant), read-out: Corn damage rating; for plant injury at 62.5 g/ha: 62.5 g ai/ha, read-out: Corn damage rating (100=total damage to plant; 0=no damage to plant); for plant injury at 62.5 g/ha / plant injury at 250 g/ha: evaluated after 13 days; for plant injury at 250 g/ha: 250 g ai/ha, read-out: damage to plant, Corn (100=total damage to plant; 0=no damage to plant)
Outline: as §1

[4] = tested on: giant foxtail (Setaria faberi); assay: Test G Post-Emergence Protocol; settings: Setaria faberi, post-emergence, 312 h; for pest or weed control at 15.625 g/ha: 15.625 g ai/ha, evaluated after 13 days (100=total damage to plant; 0=no damage to plant), read-out: Foxtail, Giant damage rating; for pest or weed control at 62.5 g/ha: 62.5 g ai/ha, read-out: Foxtail, Giant damage rating (100=total damage to plant; 0=no damage to plant); for pest or weed control at 62.5 g/ha / pest or weed control at 250 g/ha: evaluated after 13 days; for pest or weed control at 250 g/ha: 250 g ai/ha, read-out: damage to plant, Foxtail, Giant (100=total damage to plant; 0=no damage to plant)
Outline: as §1

[5] = tested on: redroot pigweed (Amaranthus retroflexus); assay: Test G Post-Emergence Protocol; settings: Amaranthus retroflexus, post-emergence, 312 h; for pest or weed control at 15.625 g/ha: 15.625 g ai/ha, evaluated after 13 days (100=total damage to plant; 0=no damage to plant), read-out: Pigweed, Redroot damage rating; for pest or weed control at 62.5 g/ha: 62.5 g ai/ha, read-out: Pigweed, Redroot damage rating (100=total damage to plant; 0=no damage to plant); for pest or weed control at 62.5 g/ha / pest or weed control at 250 g/ha: evaluated after 13 days; for pest or weed control at 250 g/ha: 250 g ai/ha, read-out: damage to plant, Pigweed, Redroot (100=total damage to plant; 0=no damage to plant)
Outline: as §1

[6] = tested on: barnyardgrass (Echinochloa crus-galli); assay: Test G Post-Emergence Protocol; settings: Echinochloa crus-galli, post-emergence, 312 h; for pest or weed control at 15.625 g/ha: 15.625 g ai/ha, evaluated after 13 days (100=total damage to plant; 0=no damage to plant), read-out: Barnyardgrass damage rating; for pest or weed control at 62.5 g/ha: 62.5 g ai/ha, read-out: Barnyardgrass damage rating (100=total damage to plant; 0=no damage to plant); for pest or weed control at 62.5 g/ha / pest or weed control at 250 g/ha: evaluated after 13 days; for pest or weed control at 250 g/ha: 250 g ai/ha, read-out: damage to plant, Barnyardgrass (100=total damage to plant; 0=no damage to plant)
Outline: as §1

[7] = tested on: velvetleaf (Abutilon theophrasti); assay: Test G Pre-Emergence Protocol; settings: Abutilon theophrasti, pre-emergence, 312 h, evaluated after 13 days; for pest or weed control at 15.625 g/ha: 15.625 g ai/ha; for pest or weed control at 15.625 g/ha / pest or weed control at 250 g/ha: read-out: Velvetleaf damage rating (100=total damage to plant; 0=no damage to plant); for pest or weed control at 62.5 g/ha: 62.5 g ai/ha, 100=total damage to plant, 0=no damage to plant, read-out: plant damage rating, Velvetleaf; for pest or weed control at 250 g/ha: 250 g ai/ha
Outline: (§2)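 Pots of seeds in standard soil were grown for one day in a glasshouse (24/16 °C day/night, 14 h light, 65% humidity), then sprayed with compound in acetone/water 50:50 with 0.5% Tween 20 at 15.625, 62.5 or 250 g/ha. Damage was scored after 13 days on a 0 (none) to 100 (total) scale.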

[8] = tested on: ivy-leaved morning glory (Ipomoea hederacea); assay: Test G Pre-Emergence Protocol; settings: Ipomoea, pre-emergence, 312 h, evaluated after 13 days; for pest or weed control at 15.625 g/ha: 15.625 g ai/ha, read-out: Morning-glory, Ivy-leaved damage rating (100=total damage to plant; 0=no damage to plant); for pest or weed control at 62.5 g/ha: 62.5 g ai/ha, 100=total damage to plant, 0=no damage to plant, read-out: plant damage rating, Morningglory, Ivy-leaved; for pest or weed control at 250 g/ha: 250 g ai/ha, read-out: Morningglory, Ivy-leaved damage rating (100=total damage to plant; 0=no damage to plant)
Outline: as §2

[9] = tested on: corn (Zea mays); assay: Test G Pre-Emergence Protocol; settings: Zea mays, pre-emergence, 312 h, evaluated after 13 days; for plant injury at 15.625 g/ha: 15.625 g ai/ha; for plant injury at 15.625 g/ha / plant injury at 250 g/ha: read-out: Corn damage rating (100=total damage to plant; 0=no damage to plant); for plant injury at 62.5 g/ha: 62.5 g ai/ha, 100=total damage to plant, 0=no damage to plant, read-out: plant damage rating, Corn; for plant injury at 250 g/ha: 250 g ai/ha
Outline: as §2

[10] = tested on: giant foxtail (Setaria faberi); assay: Test G Pre-Emergence Protocol; settings: Setaria faberi, pre-emergence, 312 h, evaluated after 13 days; for pest or weed control at 15.625 g/ha: 15.625 g ai/ha; for pest or weed control at 15.625 g/ha / pest or weed control at 250 g/ha: read-out: Foxtail, Giant damage rating (100=total damage to plant; 0=no damage to plant); for pest or weed control at 62.5 g/ha: 62.5 g ai/ha, 100=total damage to plant, 0=no damage to plant, read-out: plant damage rating, Foxtail, Giant; for pest or weed control at 250 g/ha: 250 g ai/ha
Outline: as §2

[11] = tested on: redroot pigweed (Amaranthus retroflexus); assay: Test G Pre-Emergence Protocol; settings: Amaranthus retroflexus, pre-emergence, 312 h, evaluated after 13 days; for pest or weed control at 15.625 g/ha: 15.625 g ai/ha; for pest or weed control at 15.625 g/ha / pest or weed control at 250 g/ha: read-out: Pigweed, Redroot damage rating (100=total damage to plant; 0=no damage to plant); for pest or weed control at 62.5 g/ha: 62.5 g ai/ha, 100=total damage to plant, 0=no damage to plant, read-out: plant damage rating, Pigweed, Redroot; for pest or weed control at 250 g/ha: 250 g ai/ha
Outline: as §2

[12] = tested on: barnyardgrass (Echinochloa crus-galli); assay: Test G Pre-Emergence Protocol; settings: Echinochloa crus-galli, pre-emergence, 312 h, evaluated after 13 days; for pest or weed control at 15.625 g/ha: 15.625 g ai/ha, read-out: Barnyard grass damage rating (100=total damage to plant; 0=no damage to plant); for pest or weed control at 62.5 g/ha: 62.5 g ai/ha, 100=total damage to plant, 0=no damage to plant, read-out: plant damage rating, Barnyardgrass; for pest or weed control at 250 g/ha: 250 g ai/ha, read-out: Barnyardgrass damage rating (100=total damage to plant; 0=no damage to plant)
Outline: as §2

Work on `CN1C[C@@H](c2ccc(C(F)(F)F)cc2)[C@H](C(=O)Nc2ccnc(C(F)(F)F)c2)C1=O` (racemic) [Compound 1638] yielded a pest or weed control at 15.625 g/ha [1] of 0%, a pest or weed control at 62.5 g/ha [1] of 0% and a pest or weed control at 250 g/ha [1] of 0%. It also gave a pest or weed control at 15.625 g/ha [2] of 0%, a pest or weed control at 62.5 g/ha [2] of 0% and a pest or weed control at 250 g/ha [2] of 0%. For the same compound, the plant injury at 15.625 g/ha [3] was 0%, the plant injury at 62.5 g/ha [3] was 0% and the plant injury at 250 g/ha [3] was 0%. The pest or weed control at 15.625 g/ha [4] was 0%, the pest or weed control at 62.5 g/ha [4] was 0% and the pest or weed control at 250 g/ha [4] was 0%. The pest or weed control at 15.625 g/ha [5] was 0%, the pest or weed control at 62.5 g/ha [5] was 0% and the pest or weed control at 250 g/ha [5] was 0%. It also gave a pest or weed control at 15.625 g/ha [6] of 0%, a pest or weed control at 62.5 g/ha [6] of 0% and a pest or weed control at 250 g/ha [6] of 0%. For the same compound, the pest or weed control at 15.625 g/ha [7] was 0%, the pest or weed control at 62.5 g/ha [7] was 0% and the pest or weed control at 250 g/ha [7] was 0%. The pest or weed control at 15.625 g/ha [8] was 0%, the pest or weed control at 62.5 g/ha [8] was 0% and the pest or weed control at 250 g/ha [8] was 0%. For the same compound, the plant injury at 15.625 g/ha [9] was 0%, the plant injury at 62.5 g/ha [9] was 0% and the plant injury at 250 g/ha [9] was 0%. It also gave a pest or weed control at 15.625 g/ha [10] of 0%, a pest or weed control at 62.5 g/ha [10] of 0% and a pest or weed control at 250 g/ha [10] of 0%. For the same compound, the pest or weed control at 15.625 g/ha [11] was 0%, the pest or weed control at 62.5 g/ha [11] was 0% and the pest or weed control at 250 g/ha [11] was 0%. The pest or weed control at 15.625 g/ha [12] was 0%, the pest or weed control at 62.5 g/ha [12] was 0% and the pest or weed control at 250 g/ha [12] was 0%.

Compound `CN1C[C@@H](c2ccc(C(F)(F)F)cc2)[C@H](C(=O)Nc2sccc2C#N)C1=O` (racemic) [Compound 1520] has a pest or weed control at 15.625 g/ha [1] of 0%, a pest or weed control at 62.5 g/ha [1] of 0% and a pest or weed control at 250 g/ha [1] of 10%. It also gave a pest or weed control at 15.625 g/ha [2] of 10%, a pest or weed control at 62.5 g/ha [2] of 30% and a pest or weed control at 250 g/ha [2] of 40%. The plant injury at 15.625 g/ha [3] was 0%, the plant injury at 62.5 g/ha [3] was 0% and the plant injury at 250 g/ha [3] was 20%. It also gave a pest or weed control at 15.625 g/ha [4] of 0%, a pest or weed control at 62.5 g/ha [4] of 30% and a pest or weed control at 250 g/ha [4] of 70%. It also gave a pest or weed control at 15.625 g/ha [5] of 0%, a pest or weed control at 62.5 g/ha [5] of 0% and a pest or weed control at 250 g/ha [5] of 10%. It also gave a pest or weed control at 15.625 g/ha [6] of 0%, a pest or weed control at 62.5 g/ha [6] of 30% and a pest or weed control at 250 g/ha [6] of 60%. For the same compound, the pest or weed control at 15.625 g/ha [7] was 0%, the pest or weed control at 62.5 g/ha [7] was 0% and the pest or weed control at 250 g/ha [7] was 0%. The pest or weed control at 15.625 g/ha [8] was 0%, the pest or weed control at 62.5 g/ha [8] was 0% and the pest or weed control at 250 g/ha [8] was 0%. It also gave a plant injury at 15.625 g/ha [9] of 0%, a plant injury at 62.5 g/ha [9] of 0% and a plant injury at 250 g/ha [9] of 0%. For the same compound, the pest or weed control at 15.625 g/ha [10] was 20%, the pest or weed control at 62.5 g/ha [10] was 60% and the pest or weed control at 250 g/ha [10] was 80%. For the same compound, the pest or weed control at 15.625 g/ha [11] was 0%, the pest or weed control at 62.5 g/ha [11] was 0% and the pest or weed control at 250 g/ha [11] was 30%. For the same compound, the pest or weed control at 15.625 g/ha [12] was 20%, the pest or weed control at 62.5 g/ha [12] was 50% and the pest or weed control at 250 g/ha [12] was 90%.
